The source of these data is ChEMBL document CHEMBL1240439, “Synthesis and docking studies of novel benzopyran-2-ones with anticancer activity” (2010).

Calls of active or inactive are those of the source. The calls are words filed in the database; no cut-off is given here.

Common to all, as to type: functional
The test system of assay [1] is RPMI-8226. The assay is described as follows: Cytotoxicity against human RPMI8226 cells assessed as cell growth at 10 uM after 48 hrs by sulforhodamine B assay. The settings on record: for growth at 10 µM: RPMI-8226, 48 h, read-out: Activity.
For assay [2], the system named is NCI-H522. Put plainly: Cytotoxicity against human NCI-H522 cells assessed as cell growth at 10 uM after 48 hrs by sulforhodamine B assay. A general note: In SRB staining, fixed cells bind dye roughly in proportion to their protein.
The test system of assay [3] is SF-295. The assay is described as follows: Cytotoxicity against human SF295 cells assessed as cell growth at 10 uM after 48 hrs by sulforhodamine B assay. The settings on record: for growth at 10 µM: SF-295, 48 h, read-out: Activity.
Assay [4] has as its system MOLT-4. The assay is described as follows: Cytotoxicity against human MOLT4 cells assessed as cell growth at 10 uM after 48 hrs by sulforhodamine B assay. The settings on record: for growth at 10 µM: MOLT-4, 48 h, read-out: Activity.
Assay [5] relates to UACC-62. The assay is described as follows: Cytotoxicity against human UACC62 cells assessed as cell growth at 10 uM after 48 hrs by sulforhodamine B assay. The settings on record: for growth at 10 µM: UACC-62, 48 h, read-out: Activity.
In assay [6] the test system is HT-29. Put plainly: Cytotoxicity against human HT-29 cells assessed as cell growth at 10 uM after 48 hrs by sulforhodamine B assay.
In assay [7] the test system is PC-3. Put plainly: Cytotoxicity against human PC3 cells assessed as cell growth at 10 uM after 48 hrs by sulforhodamine B assay.
The subject of assay [8] is K562. The assay is described as follows: Cytotoxicity against human K562 cells assessed as cell growth at 10 uM after 48 hrs by sulforhodamine B assay. The settings on record: for growth at 10 µM: K562, 48 h, read-out: Activity.
For assay [9], the system named is SK-MEL-2. The assay is described as follows: Cytotoxicity against human SK-MEL-2 cells assessed as cell growth at 10 uM after 48 hrs by sulforhodamine B assay.
Assay [10] relates to OVCAR-4. Put plainly: Cytotoxicity against human OVCAR4 cells assessed as cell growth at 10 uM after 48 hrs by sulforhodamine B assay.
The test system of assay [11] is SR. Put plainly: Cytotoxicity against human SR cells assessed as cell growth at 10 uM after 48 hrs by sulforhodamine B assay.
Assay [12] deals with T47D. Put plainly: Cytotoxicity against human T47D cells assessed as cell growth at 10 uM after 48 hrs by sulforhodamine B assay.
The test system of assay [13] is HL-60(TB). The assay is described as follows: Cytotoxicity against human HL-60(TB) cells assessed as cell growth at 10 uM after 48 hrs by sulforhodamine B assay.
The subject of assay [14] is EKVX. Put plainly: Cytotoxicity against human EKVX cells assessed as cell growth at 10 uM after 48 hrs by sulforhodamine B assay.
Assay [15] relates to ACHN. Put plainly: Cytotoxicity against human ACHN cells assessed as cell growth at 10 uM after 48 hrs by sulforhodamine B assay.
For assay [16], the system named is BT-549. Put plainly: Cytotoxicity against human BT549 cells assessed as cell growth at 10 uM after 48 hrs by sulforhodamine B assay.
The test system of assay [17] is TK-10. Put plainly: Cytotoxicity against human TK10 cells assessed as cell growth at 10 uM after 48 hrs by sulforhodamine B assay.
Assay [18] has as its system HOP-92. Put plainly: Cytotoxicity against human HOP92 cells assessed as cell growth at 10 uM after 48 hrs by sulforhodamine B assay.
Assay [19] concerns A549. The assay is described as follows: Cytotoxicity against human A549 cells assessed as cell growth at 10 uM after 48 hrs by sulforhodamine B assay.
Assay [20] has as its system NCI-H460. The assay is described as follows: Cytotoxicity against human NCI-H460 cells assessed as cell growth at 10 uM after 48 hrs by sulforhodamine B assay.
Assay [21] deals with Malme-3M. Put plainly: Cytotoxicity against human MALME-3M cells assessed as cell growth at 10 uM after 48 hrs by sulforhodamine B assay.
The subject of assay [22] is MDA-MB-468. Put plainly: Cytotoxicity against human MDA-MB-468 cells assessed as cell growth at 10 uM after 48 hrs by sulforhodamine B assay.
Assay [23] concerns DU-145. The assay is described as follows: Cytotoxicity against human DU145 cells assessed as cell growth at 10 uM after 48 hrs by sulforhodamine B assay.
Assay [24] has as its system CCRF-CEM. Put plainly: Cytotoxicity against human CCRF-CEM cells assessed as cell growth at 10 uM after 48 hrs by sulforhodamine B assay.
For assay [25], the system named is HCC 2998. Put plainly: Cytotoxicity against human HCC2998 cells assessed as cell growth at 10 uM after 48 hrs by sulforhodamine B assay.
Assay [26] deals with 786-0. The assay is described as follows: Cytotoxicity against human 786-0 cells assessed as cell growth at 10 uM after 48 hrs by sulforhodamine B assay.
The subject of assay [27] is U-251. The assay is described as follows: Cytotoxicity against human U251 cells assessed as cell growth at 10 uM after 48 hrs by sulforhodamine B assay.
Assay [28] deals with UACC-257. Put plainly: Cytotoxicity against human UACC257 cells assessed as cell growth at 10 uM after 48 hrs by sulforhodamine B assay.
Assay [29] deals with LOX IMVI. The assay is described as follows: Cytotoxicity against human LOXIMVI cells assessed as cell growth at 10 uM after 48 hrs by sulforhodamine B assay.
Assay [30] deals with MCF7. Put plainly: Cytotoxicity against human MCF7 cells assessed as cell growth at 10 uM after 48 hrs by sulforhodamine B assay.
For assay [31], the system named is COLO 205. The assay is described as follows: Cytotoxicity against human COLO205 cells assessed as cell growth at 10 uM after 48 hrs by sulforhodamine B assay.
Assay [32] relates to KM12. The assay is described as follows: Cytotoxicity against human KM12 cells assessed as cell growth at 10 uM after 48 hrs by sulforhodamine B assay.
Assay [33] concerns UO-31. The assay is described as follows: Cytotoxicity against human UO31 cells assessed as cell growth at 10 uM after 48 hrs by sulforhodamine B assay.
The subject of assay [34] is SK-OV-3. The assay is described as follows: Cytotoxicity against human SKOV3 cells assessed as cell growth at 10 uM after 48 hrs by sulforhodamine B assay.
Assay [35] relates to RXF 393. Put plainly: Cytotoxicity against human RXF393 cells assessed as cell growth at 10 uM after 48 hrs by sulforhodamine B assay.
In assay [36] the test system is Hs-578T. Put plainly: Cytotoxicity against human Hs 578T cells assessed as cell growth at 10 uM after 48 hrs by sulforhodamine B assay.
The test system of assay [37] is NCI-H322M. Put plainly: Cytotoxicity against human NCI-H322M cells assessed as cell growth at 10 uM after 48 hrs by sulforhodamine B assay.
In assay [38] the test system is SK-MEL-28. The assay is described as follows: Cytotoxicity against human SK-MEL-28 cells assessed as cell growth at 10 uM after 48 hrs by sulforhodamine B assay.
For assay [39], the system named is HCT-15. The assay is described as follows: Cytotoxicity against human HCT15 cells assessed as cell growth at 10 uM after 48 hrs by sulforhodamine B assay.
The test system of assay [40] is SK-MEL-5. Put plainly: Cytotoxicity against human SK-MEL-5 cells assessed as cell growth at 10 uM after 48 hrs by sulforhodamine B assay.
Assay [41] deals with SF-539. Put plainly: Cytotoxicity against human SF539 cells assessed as cell growth at 10 uM after 48 hrs by sulforhodamine B assay.
For assay [42], the system named is A498. The assay is described as follows: Cytotoxicity against human A498 cells assessed as cell growth at 10 uM after 48 hrs by sulforhodamine B assay.
Assay [43] deals with OVCAR-8. The assay is described as follows: Cytotoxicity against human OVCAR8 cells assessed as cell growth at 10 uM after 48 hrs by sulforhodamine B assay.
Assay [44] relates to M14. The assay is described as follows: Cytotoxicity against human M14 cells assessed as cell growth at 10 uM after 48 hrs by sulforhodamine B assay.
Assay [45] relates to SNB-19. The assay is described as follows: Cytotoxicity against human SNB19 cells assessed as cell growth at 10 uM after 48 hrs by sulforhodamine B assay.
For assay [46], the system named is MDA-MB-435. Put plainly: Cytotoxicity against human MDA-MB-435 cells assessed as cell growth at 10 uM after 48 hrs by sulforhodamine B assay.
The subject of assay [47] is SN12C. Put plainly: Cytotoxicity against human SN12C cells assessed as cell growth at 10 uM after 48 hrs by sulforhodamine B assay.
In assay [48] the test system is OVCAR-5. Put plainly: Cytotoxicity against human OVCAR5 cells assessed as cell growth at 10 uM after 48 hrs by sulforhodamine B assay.
Assay [49] deals with NCI-H23. Put plainly: Cytotoxicity against human NCI-H23 cells assessed as cell growth at 10 uM after 48 hrs by sulforhodamine B assay.
Assay [50] deals with NCI-H226. Put plainly: Cytotoxicity against human NCI-H226 cells assessed as cell growth at 10 uM after 48 hrs by sulforhodamine B assay.
The test system of assay [51] is HOP-62. Put plainly: Cytotoxicity against human HOP62 cells assessed as cell growth at 10 uM after 48 hrs by sulforhodamine B assay.
Assay [52] relates to HCT-116. The assay is described as follows: Cytotoxicity against human HCT116 cells assessed as cell growth at 10 uM after 48 hrs by sulforhodamine B assay.
Assay [53] relates to SNB-75. The assay is described as follows: Cytotoxicity against human SNB75 cells assessed as cell growth at 10 uM after 48 hrs by sulforhodamine B assay.
Assay [54] deals with SF-268. Put plainly: Cytotoxicity against human SF268 cells assessed as cell growth at 10 uM after 48 hrs by sulforhodamine B assay.
Assay [55] deals with MDA-MB-231. The assay is described as follows: Cytotoxicity against human MDA-MB-231 cells assessed as cell growth at 10 uM after 48 hrs by sulforhodamine B assay.
The subject of assay [56] is IGROV-1. Put plainly: Cytotoxicity against human IGROV1 cells assessed as cell growth at 10 uM after 48 hrs by sulforhodamine B assay.
Assay [57] relates to OVCAR-3. The assay is described as follows: Cytotoxicity against human OVCAR-3 cells assessed as cell growth at 10 uM after 48 hrs by sulforhodamine B assay.
The subject of assay [58] is SW-620. Put plainly: Cytotoxicity against human SW620 cells assessed as cell growth at 10 uM after 48 hrs by sulforhodamine B assay.

On to `Cc1c(OCc2nnc(S)n2Cc2ccccc2)ccc2c(-c3ccccc3)cc(=O)oc12`, for which the growth at 10 µM in assay [1] came to 31.5%; in [2] (NCI-H522, 48 h, read-out: Activity) it was 56.6%; in [3], 45.8%; in assay [4], 49%; in assay [5], 59.9%; in [6] (HT-29, 48 h, read-out: Activity), 57.1%. The growth at 10 µM was determined as 56.6% in assay [7] (PC-3, 48 h, read-out: Activity) and 53.6% in assay [8].
As to `CCCc1cc(=O)oc2cc(OCc3nnc(S)n3Cc3ccccc3)ccc12`, the growth at 10 µM in assay [1] is 37.3%; in assay [9] (SK-MEL-2, 48 h, read-out: Activity), 53.4%; in assay [10] (OVCAR-4, 48 h, read-out: Activity), 48.7%; in [3], 53%; in assay [4], 58.7%; in [11] (read-out: Activity), 57.6%. The growth at 10 µM in assay [5] came out at 59.7%; in assay [12] (read-out: Activity) it was 50.7%; in assay [13] (HL-60, 48 h, read-out: Activity), 59.7%; in assay [14] (read-out: Activity), 57.7%; in assay [8], 46.9%.
For `CCCc1cc(=O)oc2c(C)c(OCc3nnc(SC)o3)ccc12`, the growth at 10 µM in assay [3] was found to be 21.9%.
Regarding `CCCc1cc(=O)oc2c(C)c(OCC(=O)n3nc(C)cc3C)ccc12`, the outcome in assay [15], in [16], in [17], in assay [18], in assay [19] and in assay [20] was inactive. The outcome in assay [21], in assay [22], in [23], in [24], in assay [25] and in [1] was inactive. Besides, the outcome in [9], in assay [26], in assay [27], in assay [28], in assay [29] and in [2] was inactive. Also, the outcome in [30], in [10], in assay [3], in assay [31], in [32] and in assay [4] was inactive. Besides, the outcome in [33], in assay [34], in assay [35], in assay [36], in [37] and in [38] was inactive. Also, the result in assay [11], in assay [39], in assay [5], in assay [40], in assay [41] and in assay [42] was inactive. The result in assay [43], in assay [44], in assay [12], in [45], in [46] and in [47] was inactive. The result in [6], in assay [13], in [48], in [14], in [49] and in assay [7] was inactive. Moreover, the outcome in assay [8], in assay [50], in [51], in [52], in [53] and in [54] was inactive. The result in assay [55], in [56], in [57] and in assay [58] was inactive.
For the molecule `Cc1c(OCc2nnc(-c3ccccc3)o2)ccc2c(-c3ccccc3)cc(=O)oc12`, the growth at 10 µM in assay [1] was 47.5%.
